# Assay results: patent US20230364198A1, “C-Peptide as a Therapy for Patients with Diabetes” (University of Cincinnati, priority 2022, published 2023)
# “And” between values parts separate entries of the source, which are not always exact repeats. Identical values can stand only once. “Also recorded” adds a separate entry of the source. Like-named read-outs stand apart in the source and are kept apart here. No end group written: not given here.
# Key:
# [1] = dogs; cited from earlier work
# adult mongrel dogs = experiment: Hyperinsulinemic euglycemic (Pd1) / hypoglycemic (Pd2) clamp with IV C-peptide or saline coinfusion in dogs; format: in vivo, dog; settings: for glucagon secretion during euglycemic/hyperinsulinemic conditions (words): Pd1, IV C-peptide with insulin vs IV saline with insulin
# Experimental: Studies were carried out on 18-hour fasted adult mongrel dogs (21 ± 4 kg; mean ± SD; 5 male, 4 female), aged 12.1 ± 0.6 months and acquired from a US Department of Agriculture-approved vendor. The animals were housed in a facility with a 12-hour light/12-hour dark cycle (lights on at 06:00 hours) and fed once daily a standard chow and meat diet (34% protein, 14.5% fat, 46% carbohydrate, and 5.5% fiber based on dry weight) that was weight maintaining.
# Two weeks prior to being studied, each dog underwent surgery under general anesthesia to insert sampling catheters in a femoral artery, the hepatic portal vein, and the left common hepatic vein and to place blood flow probes (Transonic Systems) around the hepatic portal vein and hepatic artery. Two experiments were conducted on each animal, with the first being approximately 15 days after surgery and the second approximately 15 days later. Two days before each experiment, blood was drawn to measure leukocyte and hematocrit counts for each animal. […] On the morning of each experiment, the sampling catheters and flow probes were removed from their subcutaneous pockets under local anesthesia (2% lidocaine, Hospira), and the animal was placed in a Pavlov harness. Intravenous catheters were then inserted into a cephalic and saphenous vein to allow peripheral infusions as necessary. The animal was then allowed to rest for 100 minutes, after which basal samples were collected from the artery and portal and hepatic veins between -20 and 0 minutes.
# After the 0-minute sample was collected, experimental period 1 (Pd1) began with the infusion of insulin at 1 mU/kg/min into a leg vein (FIG. 1). At the same time, a leg vein infusion of either canine CPEP (10 pmol/kg/min; AnaSpec) or SAL was also started, and dextrose was infused as needed to maintain euglycemia throughout Pd1 (0-120 minutes). Studies were randomized such that 4 of the 9 dogs received the C-peptide on the first study and the other 5 received saline first. At minute 120, the dextrose infusion was reduced, and the plasma glucose level was allowed to fall to approximately 50 mg/dL, where it was clamped (Pd2; 120-240 minutes; FIG. 1). At the end of the first experiment, all infusions were halted with the exception of glucose, which was infused as needed to restore euglycemia. Once that infusion was no longer required, the catheters and flow probes were placed back into subcutaneous pockets under general anesthesia. After the second experiment, animals were euthanized with pentobarbital, the abdomen was opened, and the positions of the catheter tips were verified.
# The processing of blood samples has been described previously. Plasma glucose was analyzed using the glucose oxidase method (Analox Instruments). Insulin, glucagon, and C-peptide were measured using commercially available radioimmunoassay (RIA) kits from MilliporeSigma, and cortisol was measured using an RIA protocol developed by the Vanderbilt University Medical Center Hormone Assay & Analytical Services Core using an in-house antibody (gift from W. Nicholson) and 125I-cortisol (MP Biomedicals). Catecholamines were measured using high-performance liquid chromatography, while NEFA (FUJIFILM Medical Systems) and lactate and glycerol concentrations were measured using fluorometric assays.
# Hepatic blood flow was measured using ultrasonic flow probes (Transonic Systems). Net hepatic glucose balance (NHGB), hepatic sinusoidal insulin and glucagon levels, and non-hepatic glucose uptake were calculated as described previously, while plasma glucose levels were converted to whole blood values for the calculation of NHGB. Glucagon was measured every 30 minutes during Pd1 and Pd2, and those data are expressed as absolute values and as Δ AUC. […]
# [2] = humans; cited from earlier work
# [3] = in vivo; cited from earlier work
sequence,measurement,setting,value
EVEDLQVRDVELAGAPGEGGLQPLALEGALQ [C-peptide],clearance rate of C-peptide,[1],~ 11.6 mL/kg/min
same,glucagon secretion during euglycemic/hyperinsulinemic conditions (words),adult mongrel dogs,preserved glucagon secretion; also recorded: prevented the expected decline in glucagon secretion; also recorded: preserves basal glucagon secretion
same,glucagon secretion during euglycemic/hyperinsulinemic conditions (words),adult mongrel dogs; listed as CPEP,glucagon secretion decreased less
same,glucagon secretion during hypoglycemic/hyperinsulinemic conditions,"adult mongrel dogs; Pd2, IV C-peptide with insulin vs IV saline with insulin",doubled glucagon secretion
same,reduction in exogenous glucose required to sustain the plasma glucose at 50 mg/dL vs SAL,adult mongrel dogs; final 90 minutes of Pd2,47%
same,exogenous glucose infusion rate (GIR) AUC,"adult mongrel dogs; final 90 minutes of Pd2, glucose clamped at 50 mg/dL, mean ± SEM",37 ± 16 mg/kg × 90 minutes
same,impact on net hepatic uptake of NEFA and glycerol,adult mongrel dogs; hyperinsulinemia of Pd1,no additional impact
same,impact on lipolysis (NEFA and glycerol levels),"adult mongrel dogs; hypoglycemia, Pd2",no impact on lipolysis
same,increase in glucagon secretion in the CPEP group compared with SAL,"adult mongrel dogs; insulin-induced hypoglycemia (Pd2), IV C-peptide 10 pmol/kg/min with insulin 1 mU/kg/min",2 fold
same,"epinephrine, norepinephrine and cortisol levels, SAL vs CPEP","adult mongrel dogs; insulin-induced hypoglycemia, Pd2",no significant difference between treatments
same,increase in net hepatic glucose output (net HGP) vs SAL,"adult mongrel dogs; insulin-induced hypoglycemia, final 90 minutes of Pd2",75%
same,increase in net hepatic glucose output (net HGP) vs SAL,"adult mongrel dogs; insulin-induced hypoglycemia, final 90 minutes of Pd2, listed as CPEP",75% and 73%
same,clearance rate of C-peptide,[2],~ 4.4 mL/kg/min
same,C-peptide extraction by the liver as share of its clearance,[3],approximately 5%
